Test results as given in patent publication US12268682B2, “Anticancer drug FL118 formulation for treatment of human cancer” (CANGET BIOTEKPHARMA, LLC, priority 2019, dated 2025).
Where two headings read alike, the source gives them in different places.

Experiments:
Pgp/MDR1 = Pgp/MDR1 (Homo sapiens, UniProt P08183); conditions: cited from earlier work
ABCG2/BCRP = molecular target: T1, ABCG2/BCRP (Homo sapiens, UniProt Q9UNQ0); conditions: cited from earlier work
T1 sequence (Q9UNQ0 1-655): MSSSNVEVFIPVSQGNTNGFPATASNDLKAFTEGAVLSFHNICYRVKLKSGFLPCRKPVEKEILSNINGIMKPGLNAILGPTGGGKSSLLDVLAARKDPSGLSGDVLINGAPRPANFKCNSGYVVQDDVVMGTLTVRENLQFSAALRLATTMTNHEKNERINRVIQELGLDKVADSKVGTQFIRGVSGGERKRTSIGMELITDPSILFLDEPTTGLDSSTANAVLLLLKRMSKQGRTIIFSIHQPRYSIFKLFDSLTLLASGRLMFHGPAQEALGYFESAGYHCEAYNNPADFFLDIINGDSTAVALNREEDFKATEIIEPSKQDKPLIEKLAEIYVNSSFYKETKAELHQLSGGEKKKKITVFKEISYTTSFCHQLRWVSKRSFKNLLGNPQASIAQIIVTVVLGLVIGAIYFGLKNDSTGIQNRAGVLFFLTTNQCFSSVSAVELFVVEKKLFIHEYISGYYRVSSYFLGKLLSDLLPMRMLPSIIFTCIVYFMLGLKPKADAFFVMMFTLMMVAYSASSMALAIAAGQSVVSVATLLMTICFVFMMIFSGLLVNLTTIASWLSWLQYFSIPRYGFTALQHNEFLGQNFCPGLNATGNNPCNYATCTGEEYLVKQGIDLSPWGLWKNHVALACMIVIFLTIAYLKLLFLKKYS

MM cells = conditions: previously demonstrated; cited from earlier work
MM cell lines = assay: BLI-based cytotoxicity assay using LUC-transduced MM cell lines; design: species or system human; conditions: two MM cell lines, BMMSCs or HS-5
Protocol: Cell lines and culture: Luciferase (LUC)-transduced MM cell lines RPMI 8226, JJN3, UM9, MM1.s, U266, L363, and OPM-2 were cultured in RPMI 1640 (Life Technologies), supplemented with 10% heat-inactivated HyClone FetalClone I serum (GE Healthcare Life Sciences) and (penicillin, 10.000 U/mL; streptomycin, […]; InVitrogen,). HS-5 was cultured in DMEM (Life Technologies), supplemented with heat-inactivated FBS (Sigma) and antibiotics.

Pgp/MDR1, sequence (P08183 whole entry): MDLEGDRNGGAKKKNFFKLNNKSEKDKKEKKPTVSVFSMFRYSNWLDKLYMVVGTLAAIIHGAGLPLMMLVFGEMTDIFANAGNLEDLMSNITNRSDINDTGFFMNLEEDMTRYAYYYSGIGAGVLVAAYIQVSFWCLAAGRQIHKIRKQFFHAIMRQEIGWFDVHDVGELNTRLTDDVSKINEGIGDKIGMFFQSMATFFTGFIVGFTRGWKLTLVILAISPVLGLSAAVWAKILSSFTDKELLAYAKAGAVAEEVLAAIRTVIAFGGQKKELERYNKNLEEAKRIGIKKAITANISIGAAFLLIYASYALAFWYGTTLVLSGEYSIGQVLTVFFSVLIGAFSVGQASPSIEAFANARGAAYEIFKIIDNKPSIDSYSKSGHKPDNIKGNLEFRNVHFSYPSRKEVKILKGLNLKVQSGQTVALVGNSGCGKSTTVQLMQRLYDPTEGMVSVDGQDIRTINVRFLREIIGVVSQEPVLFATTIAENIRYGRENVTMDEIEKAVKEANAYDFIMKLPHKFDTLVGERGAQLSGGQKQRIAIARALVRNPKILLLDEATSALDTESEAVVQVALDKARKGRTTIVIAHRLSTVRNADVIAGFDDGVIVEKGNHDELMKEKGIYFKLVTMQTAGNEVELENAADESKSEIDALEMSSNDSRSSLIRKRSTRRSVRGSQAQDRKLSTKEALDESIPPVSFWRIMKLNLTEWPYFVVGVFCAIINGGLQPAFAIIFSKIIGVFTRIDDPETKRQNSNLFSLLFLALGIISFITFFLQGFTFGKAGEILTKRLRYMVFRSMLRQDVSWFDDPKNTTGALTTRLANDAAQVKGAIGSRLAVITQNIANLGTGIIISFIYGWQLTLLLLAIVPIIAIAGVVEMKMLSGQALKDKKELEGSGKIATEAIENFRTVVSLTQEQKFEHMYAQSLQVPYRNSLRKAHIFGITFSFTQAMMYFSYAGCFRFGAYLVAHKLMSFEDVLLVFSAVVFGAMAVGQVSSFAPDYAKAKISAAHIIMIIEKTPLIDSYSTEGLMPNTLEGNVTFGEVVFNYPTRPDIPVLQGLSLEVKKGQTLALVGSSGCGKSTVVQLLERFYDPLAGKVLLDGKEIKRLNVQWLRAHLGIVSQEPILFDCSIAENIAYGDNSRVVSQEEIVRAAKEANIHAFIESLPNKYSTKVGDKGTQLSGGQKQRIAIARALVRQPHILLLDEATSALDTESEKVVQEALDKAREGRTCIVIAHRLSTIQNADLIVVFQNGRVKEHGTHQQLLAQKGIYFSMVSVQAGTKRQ

SMILES	lysis of MM cell lines by the drug upon co-culture with stromal cells (MM cell lines)	substrate of efflux pump Pgp/MDR1 (Pgp/MDR1)	substrate of efflux pump ABCG2/BCRP (ABCG2/BCRP)	other results
CCc1c2c(nc3ccc(O)cc13)-c1cc3c(c(=O)n1C2)COC(=O)[C@]3(O)CC [SN-38]	–	–	–	substrate of efflux pump Pgp/MDR1 (Pgp/MDR1; not told): substrates; substrate of efflux pump ABCG2/BCRP (ABCG2/BCRP; not told): substrates
COCCn1c2c([n+](Cc3cnccn3)c1C)C(=O)c1ccccc1C2=O [YM155]	–	–	–	modulation of BMMSC-mediated protection against CTLs and daratumumab-dependent ADCC (MM cells): effective modulation
CC(C)C[C@H](NC(=O)[C@H](Cc1ccccc1)NC(=O)c1cnccn1)B(O)O [bortezomib, reference compound]	significantly inhibited	–	–	–
COc1cccc2c1C(=O)c1c(O)c3c(c(O)c1C2=O)C[C@@](O)(C(=O)CO)C[C@@H]3O[C@H]1C[C@H](N)[C@H](O)[C@H](C)O1 [doxorubicin, reference compound]	significantly inhibited	–	–	–
CCc1c2c(nc3ccc(OC(=O)N4CCC(N5CCCCC5)CC4)cc13)-c1cc3c(c(=O)n1C2)COC(=O)[C@]3(O)CC [irinotecan]	–	substrates	substrates	–
CC[C@@]1(O)C(=O)OCc2c1cc1n(c2=O)Cc2cc3c(CN(C)C)c(O)ccc3nc2-1 [topotecan]	–	substrates	substrates	–
